Laboratory results as given in PubChem BioAssay AID328 (DTP/NCI, 2004).
Where “and” joins values, the source holds several entries; their conditions need not be identical. Identical values can stand only once. Inconclusive results and toxic doses are left out.

Tested on: BDF1 mice, P388 leukemia ip, median survival T/C
Assay: NCI In Vivo Anticancer Drug Screen. Data for tumor model P388 Leukemia (intraperitoneal) in B6D2F1 (BDF1) mice
Conditions: endpoint: median survival time, higher = longer survival
Summary of the method: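 Survival ratio, drug arm over vehicle arm, in mice with a transplanted tumour.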

[1] = dose: 100.0 mg/kg/injection, schedule: Q01DX009 (ip), vehicle: saline
[2] = dose: 100.0 mg/kg/injection, schedule: Q04DX003 (ip), vehicle: saline
[3] = dose: 200.0 mg/kg/injection, schedule: Q01DX009 (ip), vehicle: saline
[4] = dose: 200.0 mg/kg/injection, schedule: Q04DX003 (ip), vehicle: saline
[5] = dose: 400.0 mg/kg/injection, schedule: Q01DX009 (ip), vehicle: saline
[6] = dose: 400.0 mg/kg/injection, schedule: Q04DX003 (ip), vehicle: saline
[7] = dose: 100.0 mg/kg/injection, schedule: Q01DX009 (ip), vehicle: water
[8] = dose: 100.0 mg/kg/injection, schedule: Q04DX003 (ip), vehicle: water
[9] = dose: 200.0 mg/kg/injection, schedule: Q01DX009 (ip), vehicle: water
[10] = dose: 400.0 mg/kg/injection, schedule: Q01DX009 (ip), vehicle: water
[11] = dose: 100.0 mg/kg/injection, schedule: Q01DX009 (ip), vehicle: saline with Tween-80
[12] = dose: 6.25 mg/kg/injection, schedule: Q01DX009 (ip), vehicle: saline
[13] = dose: 12.5 mg/kg/injection, schedule: Q01DX009 (ip), vehicle: saline
[14] = dose: 50.0 mg/kg/injection, schedule: Q01DX009 (ip), vehicle: saline
[15] = dose: 50.0 mg/kg/injection, schedule: Q01DX009 (ip), vehicle: Klucel (hydroxypropylcellulose) (HPC)
[16] = dose: 100.0 mg/kg/injection, schedule: Q01DX009 (ip), vehicle: Klucel (hydroxypropylcellulose) (HPC)
[17] = dose: 25.0 mg/kg/injection, schedule: Q01DX009 (ip), vehicle: saline with Tween-80
[18] = dose: 50.0 mg/kg/injection, schedule: Q01DX009 (ip), vehicle: saline with Tween-80
[19] = dose: 50.0 mg/kg/injection, schedule: Q04DX003 (ip), vehicle: saline
[20] = dose: 25.0 mg/kg/injection, schedule: Q01DX009 (ip), vehicle: Klucel (hydroxypropylcellulose) (HPC)
[21] = dose: 50.0 mg/kg/injection, schedule: Q01DX009 (ip), vehicle: water
[22] = dose: 100.0 mg/kg/injection, schedule: Q04DX003 (ip), vehicle: saline with Tween-80
[23] = dose: 200.0 mg/kg/injection, schedule: Q01DX009 (ip), vehicle: saline with Tween-80
[24] = dose: 200.0 mg/kg/injection, schedule: Q04DX003 (ip), vehicle: saline with Tween-80
[25] = dose: 400.0 mg/kg/injection, schedule: Q04DX003 (ip), vehicle: saline with Tween-80
[26] = dose: 25.0 mg/kg/injection, schedule: Q04DX003 (ip), vehicle: saline with Tween-80
[27] = dose: 50.0 mg/kg/injection, schedule: Q04DX003 (ip), vehicle: saline with Tween-80

## C[N+](C)(C)CC[N+](C)(C)C
[1]
  T/C: 93 % of control
[2]
  T/C: 93 % of control
[3]
  T/C: 101 % of control
[4]
  T/C: 118 % of control
[5]
  T/C: 93 % of control
[6]
  T/C: 107 % of control

## N#Cc1cnn(CCO)c1N
[7]
  T/C: 90 % of control
[8]
  T/C: 100 % of control
[9]
  T/C: 113 % of control
dose: 200.0 mg/kg/injection, schedule: Q04DX003 (ip), vehicle: water
  T/C: 100 % of control
[10]
  T/C: 109 % of control
dose: 400.0 mg/kg/injection, schedule: Q04DX003 (ip), vehicle: water
  T/C: 104 % of control

## O=C(NC(=O)c1c(F)cccc1F)Nc1ccc(Cl)nc1
[11]
  T/C: 91 % of control

## CC(=O)[O][Hg][CH]1CCC2OC1CC[CH]2[Hg][O]C(C)=O (centres undefined)
dose: 1.56 mg/kg/injection, schedule: Q01DX009 (ip), vehicle: saline with Tween-80
  T/C: 101 % of control
dose: 3.13 mg/kg/injection, schedule: Q01DX009 (ip), vehicle: saline with Tween-80
  T/C: 113 % of control
dose: 6.25 mg/kg/injection, schedule: Q01DX009 (ip), vehicle: saline with Tween-80
  T/C: 111 % of control
dose: 12.5 mg/kg/injection, schedule: Q01DX009 (ip), vehicle: saline with Tween-80
  T/C: 104 % of control

## O=C1c2c(Cl)c(Cl)c(Cl)c(Cl)c2C(=O)N1c1ccccc1-c1ccccc1
dose: 175.0 mg/kg/injection, schedule: Q01DX009 (ip), vehicle: saline with Tween-80
  T/C: 89 % of control
dose: 350.0 mg/kg/injection, schedule: Q01DX009 (ip), vehicle: saline with Tween-80
  T/C: 94 % of control

## N=C(N)SCCN1C(=O)NC(c2ccccc2)(c2ccccc2)C1=O
[12]
  T/C: 96 % of control and 99 % of control
[13]
  T/C: 90 % of control and 104 % of control
dose: 25.0 mg/kg/injection, schedule: Q01DX009 (ip), vehicle: saline
  T/C: 93 % of control and 105 % of control
[14]
  T/C: 102 % of control and 105 % of control
[1]
  T/C: 106 % of control and 120 % of control

## CCN(CC)CCCCCCNc1cc(OC)c(F)c2c(C)ccnc12
dose: 3.13 mg/kg/injection, schedule: Q01DX009 (ip), vehicle: saline
  T/C: 109 % of control
[12]
  T/C: 107 % of control
[13]
  T/C: 116 % of control

## FC(F)(F)c1cc(NC(=S)N2c3ccccc3-n3cccc3C2c2cccnc2)cc(C(F)(F)F)c1 (centres undefined)
[15]
  T/C: 97 % of control
[16]
  T/C: 89 % of control
dose: 200.0 mg/kg/injection, schedule: Q01DX009 (ip), vehicle: Klucel (hydroxypropylcellulose) (HPC)
  T/C: 91 % of control

## C1CSCCSCCCSCCSC1
[17]
  T/C: 98 % of control
[18]
  T/C: 102 % of control
[11]
  T/C: 118 % of control

## CC(=O)Nc1ccn(CC(=O)c2cccs2)c(=O)n1
[1]
  T/C: 90 % of control
[2]
  T/C: 86 % of control
[3]
  T/C: 95 % of control
[4]
  T/C: 86 % of control
[5]
  T/C: 90 % of control
[6]
  T/C: 100 % of control

## CC1C2CCCC1(OC(=O)c1cc([N+](=O)[O-])cc([N+](=O)[O-])c1)C2 (centres undefined)
dose: 100.0 mg/kg/injection, schedule: Q04DX002 (ip), vehicle: saline with Tween-80
  T/C: 101 % of control
dose: 200.0 mg/kg/injection, schedule: Q04DX002 (ip), vehicle: saline with Tween-80
  T/C: 94 % of control
dose: 400.0 mg/kg/injection, schedule: Q04DX002 (ip), vehicle: saline with Tween-80
  T/C: 95 % of control

## O=C1CCCN1C1=CC2=C(CCc3ccccc32)S(=O)(=O)O1
[2]
  T/C: 90 % of control
[4]
  T/C: 100 % of control
[6]
  T/C: 100 % of control

## CC#CCOCC1CO1 (centres undefined)
dose: 66.0 mg/kg/injection, schedule: Q01DX009 (ip), vehicle: saline with Tween-80
  T/C: 160 % of control
[11]
  T/C: 115 % of control
[2]
  T/C: 104 % of control
[4]
  T/C: 100 % of control

## CN(CCC#N)C1=CCCC1
[19]
  T/C: 100 % of control
[2]
  T/C: 100 % of control
[4]
  T/C: 100 % of control

## COc1cc(OC)c2c[n+](C)c3c4cc(OC)c(OC)cc4ccc3c2c1
dose: 6.25 mg/kg/injection, schedule: Q01DX009 (ip), vehicle: Klucel (hydroxypropylcellulose) (HPC)
  T/C: 154 % of control
dose: 12.5 mg/kg/injection, schedule: Q01DX009 (ip), vehicle: Klucel (hydroxypropylcellulose) (HPC)
  T/C: 154 % of control and 169 % of control
[20]
  T/C: 170 % of control and 172 % of control
[15]
  T/C: 155 % of control and 180 % of control

## O=C(O)C1CC[N-]CC1.O=C(O)C1CC[N-]CC1.[NH2-].[NH2-].[Pt+4]
[21]
  T/C: 96 % of control
[7]
  T/C: 96 % of control
[10]
  T/C: 113 % of control

## Nc1cc(S(=O)(=O)c2ccc(O)c(N)c2)ccc1O
[11]
  T/C: 104 % of control
[22]
  T/C: 100 % of control
[23]
  T/C: 108 % of control
[24]
  T/C: 95 % of control
dose: 400.0 mg/kg/injection, schedule: Q01DX009 (ip), vehicle: saline with Tween-80
  T/C: 87 % of control
[25]
  T/C: 87 % of control

## CC1(C)c2ccccc2C(=O)C1Cc1ccccc1 (centres undefined)
[14]
  T/C: 93 % of control
[19]
  T/C: 109 % of control
[1]
  T/C: 98 % of control
[2]
  T/C: 119 % of control
[3]
  T/C: 121 % of control
[4]
  T/C: 119 % of control
[5]
  T/C: 119 % of control
[6]
  T/C: 109 % of control

## CC(C)Cc1[nH]nc2c1C(=O)C(Nc1ccccc1)=CC2=O
[22]
  T/C: 99 % of control
[24]
  T/C: 100 % of control
[25]
  T/C: 100 % of control

## c1ccc(N/N=C(/C[n+]2cc3ccccc3c3ccccc32)c2ccccc2)cc1
[20]
  T/C: 114 % of control
dose: 33.0 mg/kg/injection, schedule: Q01DX009 (ip), vehicle: Klucel (hydroxypropylcellulose) (HPC)
  T/C: 113 % of control
dose: 35.0 mg/kg/injection, schedule: Q01DX009 (ip), vehicle: Klucel (hydroxypropylcellulose) (HPC)
  T/C: 95 % of control
[15]
  T/C: 100 % of control
dose: 75.0 mg/kg/injection, schedule: Q01DX009 (ip), vehicle: Klucel (hydroxypropylcellulose) (HPC)
  T/C: 112 % of control and 122 % of control
[16]
  T/C: 114 % of control

## CC1(c2cccs2)NC(=O)N(Cl)C1=O (centres undefined)
[17]
  T/C: 97 % of control
[26]
  T/C: 94 % of control
[18]
  T/C: 97 % of control
[27]
  T/C: 102 % of control
[11]
  T/C: 108 % of control
[22]
  T/C: 104 % of control and 107 % of control
[23]
  T/C: 108 % of control
[24]
  T/C: 109 % of control
[25]
  T/C: 107 % of control

## NC(N)=NCCCC(=O)O
[14]
  T/C: 104 % of control
[1]
  T/C: 94 % of control and 103 % of control
[2]
  T/C: 95 % of control
[3]
  T/C: 101 % of control and 103 % of control
[4]
  T/C: 100 % of control
[5]
  T/C: 92 % of control and 106 % of control
[6]
  T/C: 104 % of control

## COC(=O)C1(Cc2ccccc2)CCCC1(C#N)O[Si](C)(C)C (centres undefined)
dose: 12.5 mg/kg/injection, schedule: Q04DX003 (ip), vehicle: saline with Tween-80
  T/C: 92 % of control
[26]
  T/C: 106 % of control
[27]
  T/C: 97 % of control

## CCCOP(=O)(OCCC)C(OC(=O)C(C)C)=C(C)C
[22]
  T/C: 120 % of control
[24]
  T/C: 105 % of control

## COc1ccc(CN2CC(C)NC(C)C2)cc1 (centres undefined)
dose: 3.12 mg/kg/injection, schedule: Q01DX009 (ip), vehicle: water
  T/C: 108 % of control
dose: 6.25 mg/kg/injection, schedule: Q01DX009 (ip), vehicle: water
  T/C: 103 % of control
dose: 12.5 mg/kg/injection, schedule: Q01DX009 (ip), vehicle: water
  T/C: 95 % of control
dose: 25.0 mg/kg/injection, schedule: Q01DX009 (ip), vehicle: water
  T/C: 91 % of control
[21]
  T/C: 117 % of control
[7]
  T/C: 100 % of control
[8]
  T/C: 99 % of control
[9]
  T/C: 98 % of control
dose: 300.0 mg/kg/injection, schedule: Q01DX009 (ip), vehicle: water
  T/C: 117 % of control
[10]
  T/C: 97 % of control

## c1csc(NC(Nc2nccs2)C2CCCCC2)n1
[18]
  T/C: 101 % of control
[11]
  T/C: 96 % of control
[23]
  T/C: 96 % of control

## O=C(O)CCI
[26]
  T/C: 113 % of control
[14]
  T/C: 100 % of control
[27]
  T/C: 100 % of control
dose: 100.0 mg/kg/injection, schedule: Q01DX001 (ip), vehicle: saline
  T/C: 104 % of control
[1]
  T/C: 100 % of control
[22]
  T/C: 92 % of control and 95 % of control
dose: 200.0 mg/kg/injection, schedule: Q01DX001 (ip), vehicle: saline
  T/C: 104 % of control
[3]
  T/C: 91 % of control
